Experimental data published in PubChem BioAssay AID1259407 (Chemical Carcinogenesis Research Information System (CCRIS), 2018).
Calls of active or inactive are those of the source. How the calls were made is not given here.

System: CCRIS mutagenicity, Ames/micronucleus/aberration tests
Test: CCRIS mutagenicity studies
Settings: Method: STANDARD PLATE
[1] = Test System: AMES SALMONELLA TYPHIMURIUM, Strain/Indicator: TA100, Metabolic Activation: NONE

Measured: mutagenic call

CCC(C)(C)c1cc(-n2nc3ccccc3n2)c(O)c(C(C)(C)CC)c1
inactive: Test System: AMES SALMONELLA TYPHIMURIUM, Strain/Indicator: TA97, Metabolic Activation: NONE inactive; negative | Test System: AMES SALMONELLA TYPHIMURIUM, Strain/Indicator: TA97, Metabolic Activation: S-9 inactive; negative | Test System: AMES SALMONELLA TYPHIMURIUM, Strain/Indicator: TA98, Metabolic Activation: NONE inactive; negative | Test System: AMES SALMONELLA TYPHIMURIUM, Strain/Indicator: TA98, Metabolic Activation: S-9 inactive; negative | [1] inactive; negative | Test System: AMES SALMONELLA TYPHIMURIUM, Strain/Indicator: TA100, Metabolic Activation: S-9 inactive; negative | Test System: AMES SALMONELLA TYPHIMURIUM, Strain/Indicator: TA102, Metabolic Activation: NONE inactive; negative | Test System: AMES SALMONELLA TYPHIMURIUM, Strain/Indicator: TA102, Metabolic Activation: S-9 inactive; negative | Test System: E.COLI, Strain/Indicator: WP2 (PKM101), Metabolic Activation: NONE inactive; negative | Test System: E.COLI, Strain/Indicator: WP2 (PKM101), Metabolic Activation: S-9 inactive; negative

CN(C)CC(=O)O
inactive: [1] inactive; negative | Test System: AMES SALMONELLA TYPHIMURIUM, Strain/Indicator: TA100, Metabolic Activation: RAT, LIVER, S-9, AROCLOR 1254 inactive; negative

C=CC(Cl)CCl (stereo unspecified)
inactive: Test System: AMES SALMONELLA TYPHIMURIUM, Strain/Indicator: TA102, Metabolic Activation: RAT LIVER S-9, PHENOBARBITAL AND 5,6-BENZOFLAVONE inactive; negative | Test System: AMES SALMONELLA TYPHIMURIUM, Strain/Indicator: TA2638, Metabolic Activation: RAT LIVER S-9, PHENOBARBITAL AND 5,6-BENZOFLAVONE inactive; negative | Test System: E. COLI, Strain/Indicator: WP2 (PKM101), Metabolic Activation: RAT LIVER S-9, PHENOBARBITAL AND 5,6-BENZOFLAVONE inactive; negative | Test System: E. COLI, Strain/Indicator: WP2 UVRA (PKM101), Metabolic Activation: RAT LIVER S-9, PHENOBARBITAL AND 5,6-BENZOFLAVONE inactive; negative
